Data set [1] deals with plants. The note with it: foliar applications; cited from earlier work.
Data set [2] has as its system Phytophthora infestans (Genotype US-8, Matingtype A2). It is filed as in vivo. The following applies: for LESIONS PER PLANT / NO. INFECTED LEAFLETS PER PLANT / % LATE BLIGHT: potato, read seven days after inoculation; for % LATE BLIGHT: two treatments 7 days apart, inoculated 7 days later.
Data set [3] relates to Phytophthora infestans (Genotype US-17, Matingtype A1). Type of data set: in vivo. The following applies: tomato; 1% v/v; read seven days after inoculation.
The test system of data set [4] is Alternaria dauci. The data set is described as follows: Carrot/Alternaria fungicide trial (Example 10). The note with it: for AVERAGE % OF INFECTION 04/23/96 / AVERAGE % OF INFECTION 04/05/96: 8 applications; for AVERAGE % OF INFECTION 04/23/96: 25 days after last application; for AVERAGE % OF INFECTION 04/05/96: seven days after last treatment; for Alternaria control on carrots, verdict: Example 10, comment on the table.
Method: In the present example, carrots were inoculated with the Alternaria fungus. The carrots were then treated with the below listed fungicidal compositions. Also a control test was conducted. The percentage of the fungicide in the solution is also listed below along with the results. Plot size for testing was a single row of 25 feet by 4 repetitions in an RCB design. The fungicide was applied eight (8) times with the carrots then examined for infection seven (7) days and twenty-five (25) days after the last fungicidal treatment.
PLOT SIZE: Single Row×25 ft.×4 reps in a RCB design. Application dates: 2/2, 9,15,22,3/8,14,22, and 28. Rated 4/5 and 4/23/96
NOTE: Second rating was 25 days after last fungicide application. Plots were inoculated with Alternaria dauci.

In data set [5] the test system is Citrus Greasy Spot perithecia. In words: Citrus Greasy Spot perithecia count on Valencia orange leaves (Example 2). The note with it: for #PERITHECIA (Number of Perithecia Per 5 MM Field at 2.5×, Mean of Three Observations): applied mid-July, leaves harvested approximately 4 months later. Type of data set: in vivo, Mycosphaerella citri. The method, then: In the present Example, fungicides were again tested on “Valencia” oranges except the effect of various fungicides on perithecia was tested.
Twenty mature leaves (from the spring flush) per replicate were harvested approximately 4 months later and placed under greenhouse conditions and alternately wetted and dried to simulate natural defoliation and weathering.
These conditions, in turn, cause the fungus to sporulate by the formation of perithecia (spore production body of fungus). The […] were counted as a means of measuring the fungicidal activity of the treatments.
Number of Perithecia Per 5 MM Field at 2.5×—Mean of Three Observations
As used herein, a, b, c, and ab indicate statistical significance using Duncan's multiple range test. In interpreting the data, a different notation, e.g. b versus ab, means there was a statistically significant difference in the results. A difference in data of samples with the same letter notation was not statistically significant.

Data set [6] relates to Oak Leaf Blister (Taphrina Caerulescens). The data set is described as follows: Oak Leaf Blister control on laurel oaks (Example 5). The following applies: for DISEASE INDEX: applications in July approximately 3 weeks apart, rated in August, index 1 = no disease to 5 = dead foliage. It is filed as in vivo. From the text: Applications were made in July approximately 3 weeks apart and rated in August a month later. See data below.

The test system of data set [7] is Erwinia chrysanthemi. In words: Erwinia control on Hibiscus cuttings, foliar spray (Example 6). The note with it: for AVERAGE % INFECTION: rated one week later. Type of data set: in vivo. From the text: Treatments were allowed to dry for one hour and then placed in a commercial propagation bed under intermittent mist and rated for bacterial (Erwinia chrysanthemi) infection one week later.

Data set [8] concerns Erwinia. In words: Erwinia control on Hibiscus rooted cuttings, dip and spray (Example 7). Type of data set: in vivo, Erwinia chrysanthemi. The note with it: for AVERAGE % INFECTION: dip, then foliar spray 7 days later. The method, then:
A follow-up experiment to Example 6 was conducted on rooted cuttings which were dipped as they were removed from the propagation bed and foliarly sprayed 7 days later after being potted. […] Potted cuttings had not received any previous bactericide treatments prior to potting.

In data set [9] the test system is bacterial spots on pepper plants. Type of data set: in vivo. The following applies: weekly applications; g AI/liter: copper+mancozeb 2+1, Cu-EDDHA 0.1, CGA-143268 1.0, other CGA compounds 0.25 and 0.5.
For data set [10], the system named is Xanthomonas campestris. In words: Xanthomonas leaf spot of croton Codiaeum variegatum (Example 9). It is filed as in vivo. The note with it: for AVERAGE % OF INFECTION: 3 weekly foliar applications after inoculation. The protocol: Croton plants inoculated with Xanthomonas were tested with various fungicides. […] AI/100 gal. and Kocide 101 at 7.4 lbs. AI/Acre (A) were applied as foliar applications to croton (Codiaeum variegatum) previously inoculated with Xanthomonas campestris a day earlier. Treatments were assigned in a RCB design and replicated 10 times with single pots. Treatments were applied 3 times on a weekly schedule and evaluated at 7 and 14 days following the last application. See data below.

The mark [11] stands for this setting: 1 gal. (0.53 wt. % AI)/100 gallons.
Setting [12] is: 1 gal. (0.55 wt. % AI)/100 gallons.

Read-outs that look alike come from different tables or passages of the source.

As for “Fe-DTPA (di-ethylenetriaminepentaacetic acid)”, the “Phytotoxicity rankings of Fe chelates” value in data set [1] is given as “less phytotoxic”.

Regarding `O=C([O-])CN(CCN(CC(=O)[O-])CC(=O)[O-])CC(=O)[O-].[Fe+3]` [Fe-EDTA, Fe-EDTA (ethylenediaminetetraacetic acid)], the “Phytotoxicity rankings of Fe chelates” value in data set [1] is recorded as “intermediate phytotoxic”.

Consider `O=P([O-])([O-])O.[K+].[K+]` [Sample K2HPO4, dipotassium phosphate], for which, in data set [2] (1% v/v), the “LESIONS PER PLANT” value is recorded as 41.4, the “NO. INFECTED LEAFLETS PER PLANT” value stood at 31.1 and the “% LATE BLIGHT” value is 18.45%. Further, in data set [3], the “LESIONS PER PLANT” value is 74.8 and the “NO. INFECTED LEAFLETS PER PLANT” value is 36.5. For the same molecule, in data set [4] (setting [11]), the “AVERAGE % OF INFECTION 04/23/96” value is 8.2% and the “AVERAGE % OF INFECTION 04/05/96” value is 6.9%.

Regarding `O=[PH]([O-])[O-].[K+].[K+]` [Sample K2HPO3], the “Potato late blight control, verdict” value in data set [2] (Example 11, comment on the table) is given as “good results in controlling the blight”. In [2] (1% v/v), the “LESIONS PER PLANT” value was determined as 2.4, the “NO. INFECTED LEAFLETS PER PLANT” value turned out to be 1.8 and the “% LATE BLIGHT” value is reported as 1.85%. In data set [3], the “LESIONS PER PLANT” value is 56.7 and the “NO. INFECTED LEAFLETS PER PLANT” value turned out to be 21.5. Besides, in data set [4] (setting [12]), the “AVERAGE % OF INFECTION 04/23/96” value is reported as 28.8% and the “AVERAGE % OF INFECTION 04/05/96” value amounted to 18.7%.

As for `CC1COC(Cn2cncn2)(c2ccc(Oc3ccc(Cl)cc3)cc2Cl)O1` (stereo not shown) [Difenconazole, 1-2[2-[4-(4-chlorophenoxy)-2-chlorophenyl-(4-methyl-1,3-dioxolan-2-l)-methyl]]-1H-1 ,2,4-triazole, reference compound], the figures for the “#PERITHECIA (Number of Perithecia Per 5 MM Field at 2.5×, Mean of Three Observations)” value in data set [5] (rate 100 gm AI/100 gallons) and in [5] (rate 200 gm AI/100 gallons) were 5.32 ab and 11.57 ab, respectively. Besides, the “DISEASE INDEX” value in [6] (2 oz. product/100 gallons) came to 2.25.

Consider `O=C([O-])CN(CCO)CCN(CC(=O)[O-])CC(=O)[O-].[Fe+3]` [Fe-HEEDTA, Fe-HEEDTA (hydroxyethylethylenediaminetriacetic acid)], for which the “Phytotoxicity rankings of Fe chelates” value in [1] was “most phytotoxic”.

As for “Sodium cupric ethylenediamine-di-o-hydroxyphenylacetic acid [Cu-EDDHA]”, in data set [5] (Example 2, comment on the table), the “Perithecia reduction, verdict” value was “good results”. For the same molecule, the “#PERITHECIA (Number of Perithecia Per 5 MM Field at 2.5×, Mean of Three Observations)” value was found to be 3.24 b in [5] (rate 0.2 lbs. AI/100 gallons) and 5.93 ab in [5] (rate 0.4 lbs. AI/100 gallons). Moreover, the “DISEASE INDEX” value in data set [6] (8 oz. product/100 gallons) turned out to be 2.8. Also, in [6] (Example 5, comment on the table), the “Oak leaf blister repression, verdict” value is reported as “suitable disease repression”. Further, the “Control of Erwinia on Hibiscus, verdict” value in [7] (0.2 lb. AI) and in data set [8] (0.2 lb. AI) was “excellent control” each time. The “AVERAGE % INFECTION” value in data set [7] (0.2 lb. AI Cu/100 gallons foliar spray) was 6%; in [7] (0.4 lb. AI Cu/100 gallons foliar spray), 8%; in data set [8] (0.2 LB. AI/100 gallons), 19%; in data set [8] (0.8 LB. AI/100 gallons), 32%. In addition, the “Disease severity ranking 12 days after the last (eighth) application” value in data set [9] was “exhibited some control”. Also, the “Disease severity ranking after four applications” value in [9] was “CGA-143268 which was equal to copper plus mancozeb and Cu-EDDHA in activity”. Moreover, the results for the “AVERAGE % OF INFECTION” value in data set [10] (26 ml (.2 lb.) AI/100 gallons) and in [10] (52 ml (.4 lb.) AI/100 gallons) were “.6%” and 1.0%, respectively. The “Control of Xanthomonas leaf spot of Codiaeum” value in data set [10] (compared to inoculated and noninoculated controls, Cu-EDDHA at the lower rate) is “control equal to the noninoculated control treatment”. The “LESIONS PER PLANT” value in data set [2] (0.2 lb. AI/acre) worked out at 35.3. In addition, the “NO. INFECTED LEAFLETS PER PLANT” value in data set [2] (0.2 lb. AI/acre) stood at 26.9. In addition, in data set [2] (0.2 lb. AI/acre), the “% LATE BLIGHT” value was found to be 12.30%. For the same molecule, in [4] (0.2 lb AI/100 gallons), the “AVERAGE % OF INFECTION 04/23/96” value is given as 11.6%. Further, the “AVERAGE % OF INFECTION 04/05/96” value in [4] (0.2 lb AI/100 gallons) worked out at 8.8%. Also, in data set [4], the “Alternaria control on carrots, verdict” value is given as “effectively limited percentage of fungicidal infection”.

For “iron ethylenediamine-di-o-hydroxyphenylacetic acid [Fe-EDDHA]”, in [4] (0.2 lb AI/100 gallons), the “AVERAGE % OF INFECTION 04/23/96” value turned out to be 12.9% and the “AVERAGE % OF INFECTION 04/05/96” value was 12.7%. Also, in data set [4], the “Alternaria control on carrots, verdict” value was “effective fungicides”.

The record behind these values is patent US20020193351A1, “Fungicidal and bactericidal compositions for plants containing phosphonate and phosphate salts, metal chelates, and derivatives thereof” (priority 1996, published 2002).
